In patent publication US20210395235A1, “COMPOUND AS TGF-beta R1 INHIBITOR AND APPLICATION THEREOF” (NANJING SANHOME PHARMACEUTICAL CO., LTD., priority 2018, published 2021):

Legend:
ALK5 = target: T1, ALK5 (Homo sapiens, UniProt P36897); assay: In vitro activity against ALK5 kinase (ADP-Glo Kinase Assay); format: biochemical; conditions: 28° C. 120 minutes
T1 construct: purchased Carna 09-141
T1 sequence (P36897 162-503 limits assumed): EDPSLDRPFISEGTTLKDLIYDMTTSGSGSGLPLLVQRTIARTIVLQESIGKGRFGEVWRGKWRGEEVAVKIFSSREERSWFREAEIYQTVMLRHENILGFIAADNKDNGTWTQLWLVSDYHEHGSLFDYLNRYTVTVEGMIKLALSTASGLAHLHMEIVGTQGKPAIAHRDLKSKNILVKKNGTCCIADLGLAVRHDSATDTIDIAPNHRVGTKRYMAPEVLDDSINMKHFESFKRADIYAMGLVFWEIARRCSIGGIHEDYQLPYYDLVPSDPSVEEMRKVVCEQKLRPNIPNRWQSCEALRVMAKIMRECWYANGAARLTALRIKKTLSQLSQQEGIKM
Experimental: For the compounds of the present disclosure prepared in the above examples, each compound was prepared into 10 mM with DMSO, and then diluted to 3.333 μM, 1.111 μM, 370 nM, 123 nM, 41 nM, 14 nM, 4.6 nM, 1.5 nM and 0.5 nM successively.
Reagents: ALK5, Cat. No. 09-141, purchased from Carna; p38α, Cat. No. 04-152, purchased from the Carna; TGFβR1 peptides, Cat. No. T36-58, purchased from SignalChem; dimethyl sulfoxide (DMSO), purchased from Sigma, US; EDTA, purchased from Sigma, US; and ADP-Glo Kinase Assay, Cat. No. v9102/3, 1×Kinase buffer (40 mM Tris, pH7.5, 0.10% BSA, 20 mM MgCl2, 1 mM DTT), purchased from Promega, and prepared immediately before use.
2.2.1.1 Preparation of 50-fold compounds: The compounds were prepared into 500 μM, 50-fold concentration as the final concentration 10 μM for detecting the compounds, which was performed as following: into a second well of a 96-well plate, 95 μl of 100% DMSO was added, and then 5 μl of the 10 mM compound solution was added, to prepare a […] compound solution; into other wells, 60 μl of 100% DMSO was added; from the second well, 30 μl of the compound was drawn out and added into a third well; such 3-fold serial dilution was continued successively until 10 dilutions of concentration were made.
The kinase was added to a 1× kinase buffer, to form a 2× enzyme solution. 2.5 μl of the 2× enzyme solution was added to a 384-well reaction plate which already contained 100 nl of 100% DMSO-dissolved compound, to incubate at room temperature for 10 minutes.
FAM labeled peptides and ATP were added to the 1× kinase buffer, to form a 2× substrate solution. 2.5 μl of the 2× substrate solution was added to the 384-well reaction plate.
The 384-well plate was incubated at 28° C. for 120 minutes.
2.5.1 An ADP-Glo reagent was equilibrated to room temperature.
2.5.2 5 μl of the reaction solution was transferred into a reaction well at another new 384-well plate.
2.5.3 5 μl of the ADP-Glo reagent was transferred into the reaction well at the 384-well plate to stop the reaction.
2.5.4 An incubation was performed at 28° C. for 120 minutes.
2.5.5 10 μl of a kinase detection reagent was transferred into each reaction well, shaken for 1 minute, and was allowed to stand for 30 minutes at room temperature.
The luminescence value of the sample was read from Envision.
2.7.1 Luminescence reading data were copied from the Envision program.
2.7.2 The values of the luminescence reading were converted into the percent inhibition by the following formula.
Percent inhibition=(max−sample RLU)/(max−min)×100, where “min” stands for the fluorescence reading of the control sample with no enzyme added to the reaction; and “max” stands for the fluorescence reading of the sample with DMSO added as a control.
2.7.3 The date were imported into MS Excel and subjected to curve fitting using XLFit excel add-in version 5.4.0.8 and a fitting formula: Y=Bottom+(Top−Bottom)/(1+(IC50/X)^HillSlope).

[1] = tested on: TGFβ-ALK5-SMAD2/3 signaling pathway in Luc-Smad2/3-NIH3T3 cells; assay: In vitro cell luciferase assay in Luc-Smad2/3-NIH3T3 cells stimulated with TGFβ1; format: cell-based; conditions: Mus musculus; TGFβ1 4 ng/mL, 2% FBS medium, luciferase chemiluminescence
Experimental: Test compounds: For the compounds of the present disclosure prepared in the above examples, each compound was prepared into 4 mM using DMSO. Then, a 4-fold serial dilution was made to obtain 20000.00 nM, 5000.00 nM, 1250.00 nM, 312.5 nM, 78.125 nM, 19.53 nM, 4.88 nM and 1.22 nM successively.
Luc-Smad2/3-NIH3T3 mouse fibroblasts (engineered to overexpress SMAD2,3-responsive promoter) were provided by a laboratory of China Pharmaceutical University.
Reagents: DMEM, purchased from Invitrogen, US; FBS, purchased from Invitrogen, US; DMSO, purchased from Sigma, US; Glo Lysis Buffer, purchased from Progema, US; Bright-Glo Luciferase assay system, purchased from Promega, US; and TGFβ, purchased from PeproTech, US.
Instruments: MD SpectraMaX M3 multifunctional enzyme reader, purchased from Molecular Devices, US.
Cell recovery: The cells were dissolved by placing in a […] water bath, then transferred to a 15 mL of pre-warmed culture medium, and centrifuged at 1000 rpm for 5 minutes. After the culture medium was discarded, the cells were resuspend in 15 mL of fresh culture medium, transferred to a 10 cm dish, and placed in an incubator at 37° C. with 5% CO2 for culture. After 24 hours, the culture medium for the cells was changed with a fresh culture medium.
Cell passage: The recovered cells were transferred to a 50 mL sterile centrifuge tube and centrifuged at 1000 rpm for 5 minutes. The culture medium was discarded. The evenly dispersed cells was counted, and adjusted to an appropriate cell concentration of 15 mL of fresh culture medium, added to a 10 cm dish, and placed in an incubator at 37° C. with 5% CO2 for culture.
Luc-Smad2/3-NIH3T3 cells were cultured normally in a 10 cm culture dish until the confluence reached 80%-90%. After digestion, they were collected in a 15 mL centrifuge tube, centrifuged at 1000×g for 5 minutes to remove the supernatant, and resuspended with 1 mL of medium, then diluted 10 times and counted. The cells was diluted according to the results from the count, and transferred into a 96-well plate at 4×10^3/cells per well (100 μl of resuspended cells was added in each well).
1-2 mg of the drug was weighed (weighed in advance), and prepared into a 4 mM stock solution using DMSO. After 24 hours, the culture medium was removed. The drug was diluted with 2% FBS culture medium. 100 μl of the 1× drug solution was added to make the final concentration of the drug to be 20000.00 nM, 5000.00 nM, 1250.00 nM, 312.5 nM, 78.125 nM, 19.53 nM, 4.88 nM, and 1.22 nM. TGFβ1 was present in each well at a final concentration of 4 ng/mL, and diluted with 2% FBS culture medium together with the compounds.
The Glo Lysis Buffer and the Bright-glo luciferase assay system as well as the cells were equilibrated to room temperature. After the cell supernatant was removed, the cells were dissolved evenly by adding 100 μl of the Glo Lysis Buffer to each well with shaking slowly, and lysed at room temperature for 5 minutes. After that, to each well, 100 μl of the Bright-glo luciferase assay system was added to incubate the cells for 5 minute at room temperature with shaking for 2 minutes. Then, 180 μl of the supernatant was transferred to a white bottom 96-well plate to detect chemiluminescence signal. The detection condition was 1 s.
2.3 Data processing: Graphpad Prism 5 software was used to perform nonlinear curve fitting and data analysis to obtain IC50 by fitting.

[2] = animal models; cited from earlier work

## FC(F)(F)Cn1cc2c(n1)CN(c1ccc3c(Oc4cn(C5CC5)nc4C4CCOCC4)ccnc3c1)C2 [Example 6, 4-((1-cyclopropyl-3-(tetrahydro-2H-pyran-4-yl)-1H-pyrazol-4-yl)oxy)-7-(2-(2,2,2-trifluoroethyl)-2,6-dihydropyrrolo[3,4-c]pyrazole-5(4H)-yl)quinoline]
ALK5
  IC50: 66 nM
[1]
  IC50: 165 nM

## Cn1cc(-c2ccc3c(Oc4cn(C5CC5)nc4C4CCOCC4)ccnc3c2)cn1 [Example 7, 4-((1-cyclopropyl-3-(tetrahydro-2H-pyran-4-yl)-1H-pyrazol-4-yl)oxy)-7-(1-methyl-1H-pyrazol-4-yl)quinoline]
ALK5
  IC50: 5.2 nM
[1]
  IC50: 81 nM

## CS(=O)(=O)c1ccc(-c2ccc3c(Oc4cn(C5CC5)nc4C4CCOCC4)ccnc3c2)cc1 [Example 15, 4-((1-cyclopropyl-3-(tetrahydro-2H-pyran-4-yl)-1H-pyrazol-4-yl)oxy)-7-(4-(methylsulfonyl)phenyl) quinoline]
ALK5
  IC50: 3.2 nM
[1]
  IC50: 80 nM

## CC(C)(O)c1cc(-c2ccc3c(Oc4cn(C5CC5)nc4C4CCOCC4)ccnc3c2)ccn1 [Example 16, 2-(4-(4-((1-cyclopropyl-3-(tetrahydro-2H-pyran-4-yl)-1H-pyrazol-4-yl)oxy)quinolin-7-yl)pyridin-2-yl)propan-2-ol]
ALK5
  IC50: 100 nM
[1]
  IC50: 200 nM

## COc1cc2nccc(Oc3cn(C4CC4)nc3C3CCOCC3)c2cc1C(N)=O [Example 17, 4-((1-cyclopropyl-3-(tetrahydro-2H-pyran-4-yl)-1H-pyrazol-4-yl)oxy)-7-methoxyquinoline-6-carboxamide]
ALK5
  IC50: 66 nM
[1]
  IC50: 131 nM

## COc1cc2nccc(Oc3cn(C4CC4)nc3C3CCOCC3)c2cc1Nc1cnn(C)c1 [Example 18, 4-((1-cyclopropyl-3-(tetrahydro-2H-pyran-4-yl)-1H-pyrazol-4-yl)oxy)-7-methoxy-N-(1-methyl-1H-pyrazol-4-yl)quinoline-6-amine]
ALK5
  IC50: 6 nM
[1]
  IC50: 87 nM

## COc1cc2nccc(Oc3cn(C4CC4)nc3C3CCOCC3)c2cc1Nc1cnn(C2COC2)c1 [Example 19, 4-((1-cyclopropyl-3-(tetrahydro-2H-pyran-4-yl)-1H-pyrazol-4-yl)oxa)-7-methoxy-N-(1-(oxetan-3-yl)-1H-pyrazol-4-yl)quinoline-6-amine]
ALK5
  IC50: 10 nM
[1]
  IC50: 203 nM

## Cc1cccc(-c2nn3c(c2-c2ccnc4ccc(C(N)=O)cc24)CCC3)n1 [Galunisertib]
[2]
  cardiotoxicity (such as bleeding, functional deterioration, and inflammatory injury): certain cardiotoxicity
